Some test systems named below: HT29 colon; MDA-MB-231 breast; HS 578T breast; PC-3 prostate; SF-268 CNS; U251 CNS; SNB-75 CNS; TK-10 renal; HCC-2998 colon; SK-MEL-5 melanoma.
Holding throughout (assay): growth of human tumour cells (NCI), 48 h

From PubChem BioAssay (NCI) come the findings set out here.

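The compound was tested at five concentrations on cells cultured in 96-well plates, with a 48-hour exposure period. At the GI50, growth is halved. TGI: concentration producing complete growth inhibition.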

Regarding `CC[C@H](NC(=O)[C@H]1CCCCN1C)C(=O)N(C)[C@H](C[C@@H](OC(C)=O)c1nc(C(=O)N[C@@H](Cc2ccccc2)C[C@H](C)C(=O)O)cs1)C(C)C`, the GI50 was 0.00388 µM with HT29 colon; 0.008 µM in the assay with MDA-MB-231 breast; 0.00643 µM in the assay with HS 578T breast; 0.00472 µM with PC-3 prostate; less than 0.03 µM with SF-268 CNS; 0.0047 µM in the assay with U251 CNS. Besides, the GI50 with SNB-75 CNS is 0.00528 µM; in the assay on HCC-2998 colon, 0.0112 µM; with SK-MEL-5 melanoma it was less than 0.00143 µM. For the same compound, the TGI in the assay on HT29 colon, in the assay on MDA-MB-231 breast, with HS 578T breast, with PC-3 prostate, with SF-268 CNS and in the assay with U251 CNS was greater than 14.3 µM each time. For the same compound, the TGI is greater than 14.3 µM with SNB-75 CNS, greater than 14.3 µM in the assay with TK-10 renal, greater than 14.3 µM in the assay on HCC-2998 colon and 0.101 µM in the assay with SK-MEL-5 melanoma.
Turning to `COc1ccc(/C=C(/C(=O)N2CCN(c3ccccc3)CC2)c2cc(OC)c(OC)c(OC)c2)cc1N`, the GI50 with HT29 colon is 0.366 µM; in the assay with MDA-MB-231 breast, 0.411 µM; with HS 578T breast, 0.357 µM; in the assay on PC-3 prostate, 0.414 µM; with SF-268 CNS, 0.711 µM; in the assay on U251 CNS it was 0.361 µM. Also, the GI50 in the assay with SNB-75 CNS was 0.22 µM; in the assay with TK-10 renal it was 72.1 µM; in the assay with HCC-2998 colon it was 0.556 µM; in the assay on SK-MEL-5 melanoma, 0.386 µM. Further, the TGI in the assay on HT29 colon was 13.3 µM; in the assay with MDA-MB-231 breast it was 24.4 µM; in the assay on HS 578T breast, greater than 100 µM; in the assay with PC-3 prostate it was greater than 100 µM; in the assay on SF-268 CNS, greater than 100 µM; in the assay with U251 CNS, greater than 100 µM. Also, the TGI in the assay on SNB-75 CNS is greater than 100 µM; in the assay on TK-10 renal, greater than 100 µM; in the assay on HCC-2998 colon, greater than 100 µM; with SK-MEL-5 melanoma it was 10.9 µM.
On to `CCOC(=O)c1ccccc1OC(=O)NNc1ccccc1`, for which the GI50 in the assay on HT29 colon is greater than 100 µM; with MDA-MB-231 breast, 10.5 µM; in the assay with HS 578T breast, greater than 31.9 µM; in the assay with PC-3 prostate, 7.91 µM; in the assay with SF-268 CNS, 12.1 µM; with U251 CNS, greater than 35.6 µM. Further, the GI50 is greater than 60.4 µM with SNB-75 CNS, 7.05 µM in the assay with TK-10 renal, 0.583 µM in the assay with HCC-2998 colon and 1.43 µM in the assay on SK-MEL-5 melanoma. In addition, the TGI in the assay on HT29 colon, with MDA-MB-231 breast, in the assay on HS 578T breast, in the assay with PC-3 prostate, in the assay with SF-268 CNS and in the assay with U251 CNS was greater than 100 µM each time. Also, the TGI with SNB-75 CNS is greater than 100 µM; in the assay on TK-10 renal, greater than 100 µM; with SK-MEL-5 melanoma it was greater than 33.2 µM.
`CCCCCCCC/C=C/CCCCCCCC1=NC(C)(C)CN1CC(C)O` (configuration not stated): the GI50 was 1.59 µM in the assay on HT29 colon; 1.66 µM with MDA-MB-231 breast; 1.9 µM in the assay with HS 578T breast; 2.26 µM with PC-3 prostate; 1.73 µM in the assay with SF-268 CNS; 1.64 µM with U251 CNS. The GI50 was 1.81 µM with SNB-75 CNS, 2.73 µM with TK-10 renal, 4.68 µM with HCC-2998 colon and 6.39 µM in the assay with SK-MEL-5 melanoma. For the same compound, the TGI in the assay with HT29 colon was determined as 3.09 µM; in the assay with MDA-MB-231 breast, 3.43 µM; in the assay with HS 578T breast, 4.62 µM; in the assay on PC-3 prostate it was 8.08 µM; in the assay with SF-268 CNS, 3.16 µM; in the assay with U251 CNS, 3.02 µM. For the same compound, the TGI worked out at 4.23 µM in the assay on SNB-75 CNS, 7.49 µM with TK-10 renal, 9.45 µM in the assay on HCC-2998 colon and 16.9 µM in the assay with SK-MEL-5 melanoma.
On to `CCN(CC)CCNc1ccc(C)c2sc3cc(Cl)ccc3c(=O)c12`, for which the GI50 is 1.94 µM in the assay on HT29 colon; 1.41 µM with MDA-MB-231 breast; 1.65 µM with HS 578T breast; 1.54 µM with PC-3 prostate; 1.68 µM with SF-268 CNS; 1.73 µM with U251 CNS. Moreover, the GI50 in the assay with SNB-75 CNS is 1.71 µM; in the assay with TK-10 renal, 2.2 µM; in the assay on HCC-2998 colon it was 1.75 µM; in the assay on SK-MEL-5 melanoma, 1.68 µM. For the same compound, the TGI amounted to 3.48 µM in the assay on HT29 colon; 2.93 µM with MDA-MB-231 breast; 3.9 µM in the assay with HS 578T breast; 3.01 µM in the assay on PC-3 prostate; 3.37 µM in the assay on SF-268 CNS; 3.22 µM in the assay with U251 CNS. The TGI in the assay with SNB-75 CNS stood at 4.98 µM; with TK-10 renal, 3.77 µM; with HCC-2998 colon it was 3.58 µM; in the assay with SK-MEL-5 melanoma, 3.07 µM.
For the compound `COc1ccc(C(=O)Nc2ncc(Cc3cccc(Cl)c3)s2)cc1OC`, the GI50 in the assay with HT29 colon was 0.148 µM; in the assay with MDA-MB-231 breast it was 1.77 µM; in the assay on HS 578T breast, 0.445 µM; in the assay on PC-3 prostate it was 1.5 µM; in the assay on SF-268 CNS, 0.882 µM; with U251 CNS it was 0.505 µM. Besides, the GI50 was 0.405 µM with SNB-75 CNS, 7.85 µM with TK-10 renal, 0.134 µM with HCC-2998 colon and 0.247 µM in the assay on SK-MEL-5 melanoma. Besides, the TGI with HT29 colon, with MDA-MB-231 breast, in the assay with HS 578T breast, in the assay with PC-3 prostate, with SF-268 CNS and in the assay on U251 CNS was greater than 100 µM in each case. The TGI in the assay on TK-10 renal was greater than 100 µM; in the assay on HCC-2998 colon, greater than 44.1 µM; in the assay on SK-MEL-5 melanoma it was 11.1 µM.
